The values below come from patent publication US9085555B2, “Complement pathway modulators and uses thereof” (priority 2011, dated 2015).

Structures can show the parent of a compound that is named as a salt.

The target in the assay is Factor D (Homo sapiens (Human), UniProt P00746). Put plainly: biochemical. The settings on record: read-out: IC50. In kind it is biochemical.
Sequence of Factor D (P00746 26-253): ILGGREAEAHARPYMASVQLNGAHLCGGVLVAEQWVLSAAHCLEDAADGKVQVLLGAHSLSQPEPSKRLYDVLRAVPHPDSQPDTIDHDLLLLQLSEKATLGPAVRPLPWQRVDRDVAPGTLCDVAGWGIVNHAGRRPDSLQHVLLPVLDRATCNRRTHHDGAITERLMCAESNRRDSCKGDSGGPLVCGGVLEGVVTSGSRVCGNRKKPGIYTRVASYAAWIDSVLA
Regarding `NC[C@H]1CC[C@@H](C(=O)Nc2cccc(OC(F)(F)F)c2)N1C(=O)Nc1cn(C(N)=O)c2ccccc12` [Example 402, (2S,5R)-5-Aminomethyl-pyrrolidine-1,2-dicarboxylic acid 1-[(1-carbamoyl-1H-indol-3-yl)-amide]2-[(3-trifluoromethoxy-phenyl)-amide]], the IC50 (in general, the concentration at which inhibition is half-maximal) turned out to be 300 nM. For `CC(=O)c1cn(CC(=O)N2C[C@](C)(F)C[C@H]2C(=O)NCc2cccc(Cl)c2F)c2cc(O)ccc12` [Example 582, (2S,4R)-1-[2-(3-Acetyl-6-hydroxy-indol-1-yl)-acetyl]-4-fluoro-4-methyl-pyrrolidine-2-carboxylic acid 3-chloro-2-fluoro-benzylamide], the IC50 was found to be 134 nM. The value for `NC(=O)n1cc(NC(=O)N2C[C@@H](N)C[C@H]2C(=O)NCc2cccc(Cl)c2)c2ccccc21` [Example 29, (2S,4S)-4-Amino-pyrrolidine-1,2-dicarboxylic acid 1-[(1-carbamoyl-1H-indol-3-yl)-amide] 2-(3-chloro-benzylamide)] was 588 nM; that for `NC(=O)n1cc(NC(=O)N2[C@H]3C[C@@]3(CO)C[C@H]2C(=O)NCc2cccc(Cl)c2F)c2ccccc21` [Example 357, 1S,3S,5R)-5-Hydroxymethyl-2-aza-bicyclo[3.1.0]hexane-2,3-dicarboxylic acid 2-[(1-carbamoyl-1H-indol-3-yl)-amide]3-(3-chloro-2-fluoro-benzylamide] was 389 nM; that for `CC(=O)c1nn(CC(=O)N2C[C@H](F)C[C@H]2C(=O)NCc2cccc(Cl)c2F)c2cnccc12` [Example 623, (2S,4R)-1-[2-(3-Acetyl-pyrazolo[3,4-c]pyridin-1-yl)-acetyl]-4-fluoro-pyrrolidine-2-carboxylic acid 3-chloro-2-fluoro-benzylamide formate] was 24 nM. As to `NC(=O)c1cn(CC(=O)N2C[C@H](F)C[C@H]2C(=O)NCc2cccc(Cl)c2F)c2cc(OCc3nn[nH]n3)ccc12` [Example 585, 1-{2-[(2S,4R)-2-(3-Chloro-2-fluoro-benzylcarbamoyl)-4-fluoro-pyrrolidin-1-yl]-2-oxo-ethyl}-6-(1H-tetrazol-5-ylmethoxy)-1H-indole-3-carboxylic acid amide], the IC50 amounted to 17 nM. The figure for `CC(=O)n1cc(NC(=O)N2CCC[C@H]2C(=O)Nc2cccc(OC(F)(F)F)c2)c2ccccc21` [Example 271, (S)-Pyrrolidine-1,2-dicarboxylic acid 1-[(1-acetyl-1H-indol-3-yl)-amide] 2-[(3-trifluoromethoxy-phenyl)-amide]] is 629 nM. The value for `NC(=O)n1cc(NC(=O)N2C3CC3C[C@H]2C(=O)NCc2ncccc2F)c2ccccc21` (stereo partly shown) [Example 242] was 200 nM; that for `NC(=O)c1nn(CC(=O)N2[C@H](C(=O)Nc3cccc(Br)n3)C[C@@]3(CO)C[C@@H]23)c2ccccc12` [Example 760, 1-{2-[(1R,3S,5S)-3-(6-Bromo-pyridin-2-ylcarbamoyl)-5-hydroxymethyl-2-aza-bicyclo[3.1.0]hex-2-yl]-2-oxo-ethyl}-1H-indazole-3-carboxylic acid amide] was 12 nM; that for `NC(=O)n1cc(NC(=O)N2C[C@@H](N)C[C@H]2C(=O)NCc2ccc(F)c(Cl)c2)c2ccccc21` [Example 56, (2S,4S)-4-Amino-pyrrolidine-1,2-dicarboxylic acid 1-[(1-carbamoyl-1H-indol-3-yl)-amide] 2-(3-chloro-4-fluoro-benzylamide)] was 1950 nM.

Regarding `CC(=O)c1cn(CC(=O)N2C[C@H](F)C[C@H]2C(=O)NCc2cccc(Cl)c2F)c2cc(CC(=O)O)ccc12` [Example 595, (3-Acetyl-1-{2-[(2S,4R)-2-(3-chloro-2-fluoro-benzylcarbamoyl)-4-fluoro-pyrrolidin-1-yl]-2-oxo-ethyl}-1H-indol-6-yl)-acetic acid], the IC50 was 41 nM.

`CC(=O)c1cn(CC(=O)N2[C@@H]3C[C@@H]3C[C@H]2C(=O)NCc2cc(C#N)cc(Cl)c2F)c2ccccc12` [Example 527, (1R,3S,5R)-2-[2-(3-Acetyl-indol-1-yl)-acetyl]-2-aza-bicyclo[3.1.0]hexane-3-carboxylic acid 3-chloro-5-cyano-2-fluoro-benzylamide]: the IC50 stood at 483 nM. The figure for `Cc1cc2c(C(N)=O)nn(CC(=O)N3[C@@H]4C[C@@H]4C[C@H]3C(=O)NCc3cccc(Cl)c3F)c2cn1` [Example 651, 1-{2-[(1R,3S,5R)-3-(3-Chloro-2-fluoro-benzylcarbamoyl)-2-aza-bicyclo[3.1.0]hex-2-yl]-2-oxo-ethyl}-5-methyl-1H-pyrazolo[3,4-c]pyridine-3-carboxylic acid amide] is 21 nM; for `NC(=O)c1nn(CC(=O)N2[C@@H]3C[C@@H]3C[C@H]2C(=O)Nc2cccc(Br)n2)c2cc(Cl)ccc12` [Example 749, 1-{2-[(1R,3S,5R)-3-(6-Bromo-pyridin-2-ylcarbamoyl)-2-aza-bicyclo[3.1.0]hex-2-yl]-2-oxo-ethyl}-6-chloro-1H-indazole-3-carboxylic acid amide] it is 4 nM; for `CC[C@H](C)[C@H](NC(=O)[C@@H]1C[C@@H](F)CN1C(=O)Nc1cn(C(N)=O)c2ccccc12)C(=O)O` [Example 25, (2S,3S)-2-{[(2S,4R)-1-(1-Carbamoyl-1H-indol-3-ylcarbamoyl)-4-fluoro-pyrrolidine-2-carbonyl]-amino}-3-methyl-pentanoic acid] it is 6750 nM. Take `COC1(OC)C[C@@H](C(=O)NCc2cccc(Cl)c2F)N(C(=O)Nc2cn(C(N)=O)c3ccccc23)C1` [Example 428, S)-4,4-Dimethoxy-pyrrolidine-1,2-dicarboxylic acid 1-[(1-carbamoyl-1H-indol-3-yl)-amide]2-(3-chloro-2-fluoro-benzylamide]: the IC50 was found to be 478 nM. The value for `CN[C@H]1C[C@@H](C(=O)NCc2cccc(Cl)c2F)N(C(=O)Cn2cc(C(C)=O)c3ccccc32)C1` [Example 608, (2S,4S)-1-[2-(3-Acetyl-indol-1-yl)-acetyl]-4-methylamino-pyrrolidine-2-carboxylic acid 3-chloro-2-fluoro-benzylamide] was 1840 nM. The figure for `Cc1ccnc(CNC(=O)[C@@H]2C[C@@H](F)CN2C(=O)Nc2cn(C(N)=O)c3ccccc23)c1F` [Example 304, (2S,4R)-4-Fluoro-pyrrolidine-1,2-dicarboxylic acid 1-[(1-carbamoyl-1H-indol-3-yl)-amide] 2-[(3-fluoro-4-methyl-pyridin-2-ylmethyl)-amide]] is 653 nM; for `COC(=O)[C@H](COC(C)(C)C)NC(=O)[C@@H]1C[C@H](N)CN1C(=O)Nc1cn(C(N)=O)c2ccccc12` [Example 96, (S)-2-{[(2S,4S)-4-Amino-1-(1-carbamoyl-1H-indol-3-ylcarbamoyl)-pyrrolidine-2-carbonyl]-amino}-3-tert-butoxy-propionic acid methyl ester] it is 8050 nM. Consider `CC(=O)c1nn(CC(=O)N2[C@@H]3C[C@@H]3C[C@H]2C(=O)Nc2cccc(Br)n2)c2ccncc12` [Example 740, (1R,3S,5R)-2-[2-(3-Acetyl-pyrazolo[4,3-c]pyridin-1-yl)-acetyl]-2-aza-bicyclo[3.1.0] hexane-3-carboxylic acid (6-bromo-pyridin-2-yl)-amide], for which the IC50 came out at 13 nM.

Turning to `Cc1cc2c(C(N)=O)nn(CC(=O)N3[C@@H]4C[C@@H]4C[C@H]3C(=O)Nc3cccc(Br)n3)c2c(C)n1` [Example 743, 1-{2-[(1R,3S,5R)-3-(6-Bromo-pyridin-2-ylcarbamoyl)-2-aza-bicyclo[3.1.0]hex-2-yl]-2-oxo-ethyl}-5,7-dimethyl-1H-pyrazolo[3,4-c]pyridine-3-carboxylic acid amide], the IC50 was found to be 5 nM. On to `CC(=O)c1nn(CC(=O)N2[C@@H]3C[C@@H]3C[C@H]2C(=O)Nc2nccc(C(F)(F)F)n2)c2ncccc12` [Example 769, (1R,3S,5R)-2-[2-(3-Acetyl-pyrazolo[3,4-b]pyridin-1-yl)-acetyl]-2-aza-bicyclo[3.1.0]hexane-3-carboxylic acid (4-trifluoromethyl-pyrimidin-2-yl)-amide], for which the IC50 was found to be 378 nM. The figure for `NC(=O)n1cc(NC(=O)N2C[C@@H](CO)C[C@H]2C(=O)NCc2c(F)ccc(Cl)c2F)c2ccccc21` [Example 436, 2S,4S)-4-Hydroxymethyl-pyrrolidine-1,2-dicarboxylic acid 1-[(1-carbamoyl-1H-indol-3-yl)-amide]2-(3-chloro-2,6-difluoro-benzylamide] is 150 nM; for `CC(=O)c1cn(CC(=O)N2[C@@H]3C[C@@H]3C[C@H]2C(=O)NCc2cccc(Cl)c2F)c2c(C(=O)O)cccc12` [Example 601, 3-Acetyl-1-{2-[(1R,3S,5R)-3-(3-chloro-2-fluoro-benzylcarbamoyl)-2-aza-bicyclo[3.1.0]hex-2-yl]-2-oxo-ethyl}-1H-indole-7-carboxylic acid] it is 110 nM; for `NC(=O)c1nn(CC(=O)N2[C@@H]3C[C@@H]3C[C@H]2C(=O)Nc2cccc(-c3ccccc3Cl)c2F)c2cnccc12` [Example 685, 1-{2-[(1R,3S,5R)-3-(2′-Chloro-2-fluoro-biphenyl-3-ylcarbamoyl)-2-aza-bicyclo[3.1.0]hex-2-yl]-2-oxo-ethyl}-1H-pyrazolo[3,4-c] pyridine-3-carboxylic acid amide] it is 5 nM. The figure for `NC(=O)c1nn(CC(=O)N2C[C@H]3C[C@H]3[C@H]2C(=O)Nc2cccc(Br)n2)c2ccccc12` [Example 746, 1-{2-[(1R,2S,5S)-2-(6-Bromo-pyridin-2-ylcarbamoyl)-3-aza-bicyclo[3.1.0]hex-3-yl]-2-oxo-ethyl}-1H-indazole-3-carboxylic acid amide] is 7 nM.

For `NC(=O)n1cc(NC(=O)N2C[C@H](F)C[C@H]2C(=O)NCc2cc(-c3nnn[nH]3)cc(Cl)c2F)c2ccccc21` [Example 346, (2S,4R)-4-Fluoro-pyrrolidine-1,2-dicarboxylic acid 1-[(1-carbamoyl-1H-indol-3-yl)-amide]2-[3-chloro-2-fluoro-5-(1H-tetrazol-5-yl)-benzylamide]], the IC50 worked out at 69 nM. The figure for `NC(=O)n1cc(NC(=O)N2C[C@@H](N)C[C@H]2C(=O)NC[C@@H]2CCCC[C@@H]2O)c2ccccc21` [Example 76, (2S,4S)-4-Amino-pyrrolidine-1,2-dicarboxylic acid 1-[(1-carbamoyl-1H-indol-3-yl)-amide] 2-[((1S,2S)-2-hydroxy-cyclohexylmethyl)-amide]] is 15600 nM.
